{"source": "patent US6143769A", "about": "“Phenylacetic acid benzylamides” (Karl Thomae GmbH, priority 1983, dated 2000)", "type_in_all_cases": "in vivo, human", "key": {"[1]": {"test_system": "glucose", "experiment": "Study 1: whole blood glucose, 2 mg AG-EE 388 ZW capsule, 12 healthy male volunteers", "details": "2 mg capsule"}, "[2]": {"experiment": "Study 1: plasma concentration, non-stereoselective HPLC"}, "[3]": {"test_system": "glucose", "experiment": "Study 2: whole blood glucose, 2 mg AG-EE 388 ZW capsule or tablet, crossover", "excerpt": "(§1) Blood samples were taken at various times."}, "[4]": {"experiment": "Study 2: plasma concentration, HPLC", "details": "for concentration at 0.2 h: 0.20 h", "excerpt": "as §1"}, "[5]": {"details": "human, plasma, po, 2 mg, 2 mg capsule, 0.50 h"}, "[6]": {"details": "human, plasma, po, 2 mg, 2 mg capsule, 0.75 h"}, "[7]": {"details": "human, plasma, po, 2 mg, 2 mg capsule, 1.00 h"}, "[8]": {"details": "human, plasma, po, 2 mg, 2 mg capsule, 1.50 h"}, "[9]": {"details": "human, plasma, po, 2 mg, 2 mg capsule, 2.00 h"}, "[10]": {"details": "human, plasma, po, 2 mg, 2 mg capsule, 3.00 h"}, "[11]": {"details": "human, plasma, po, 2 mg, 2 mg capsule, 4.00 h"}, "[12]": {"details": "human, plasma, po, 2 mg, 2 mg capsule, 5.00 h"}, "[13]": {"details": "human, plasma, po, 2 mg, 2 mg capsule, 6.00 h"}, "[14]": {"details": "human, plasma, po, 2 mg, 2 mg capsule"}, "[15]": {"details": "human, plasma, po, 2 mg, 2 mg tablet"}}}
{"smiles": "CCOc1cc(CC(=O)NC(CC(C)C)c2ccccc2N2CCCCC2)ccc1C(=O)O", "note": "(racemic) [AG-EE 388 ZW, 2-ethoxy-4-[N-[1-(2-piperidino-phenyl)-3-methyl-1-butyl]aminocarbonylmethyl]-benzoic acid]", "values": [{"measurement": "Duration of activity", "setting": "[1]", "result": "about 5 hours"}, {"measurement": "Glucose, deviation from placebo", "setting": "[1]; 0 h", "result": "n.s."}, {"measurement": "Glucose, deviation from placebo", "setting": "[1]; 0.50 h", "result": "n.s."}, {"measurement": "Glucose, deviation from placebo", "setting": "[1]; 0.75 h", "result": -9, "unit": "%"}, {"measurement": "Glucose, deviation from placebo", "setting": "[1]; 1.00 h", "result": -17, "unit": "%"}, {"measurement": "Glucose, deviation from placebo", "setting": "[1]; 1.50 h", "result": -27, "unit": "%"}, {"measurement": "Glucose, deviation from placebo", "setting": "[1]; 2.00 h", "result": -24, "unit": "%"}, {"measurement": "Glucose, deviation from placebo", "setting": "[1]; 2.50 h", "result": -19, "unit": "%"}, {"measurement": "Glucose, deviation from placebo", "setting": "[1]; 3.00 h", "result": "n.s."}, {"measurement": "Glucose, deviation from placebo", "setting": "[1]; 4.00 h", "result": -24, "unit": "%"}, {"measurement": "Glucose, deviation from placebo", "setting": "[1]; 5.00 h", "result": -9, "unit": "%"}, {"measurement": "Glucose, deviation from placebo", "setting": "[1]; 5.50 h (lunch)", "result": "n.s."}, {"measurement": "Glucose, deviation from placebo", "setting": "[1]; 6.00 h", "result": "n.s."}, {"measurement": "Glucose, deviation from placebo", "setting": "[1]; 7.00 h (snack)", "result": "n.s."}, {"measurement": "Glucose, deviation from placebo", "setting": "[1]; 8.00 h", "result": -5, "unit": "%"}, {"measurement": "Glucose, deviation from placebo", "setting": "[1]; 9.00 h", "result": "n.s."}, {"measurement": "Glucose, deviation from placebo", "setting": "[1]; 10.00 h (dinner)", "result": "n.s."}, {"measurement": "Concentration (mean)", "setting": "[2]; 2 mg capsule, 0 h", "result": 0.0, "unit": "ng/mL"}, {"measurement": "Concentration (mean)", "setting": "[2]; 2 mg capsule, 10.00 h", "result": 0.0, "unit": "ng/mL"}, {"measurement": "Time at which level reaches the detection limit", "setting": "[2]; 2 mg capsule, limit 5 ng/ml", "result": 5, "unit": "h"}, {"measurement": "concentration at 0.5 h", "setting": "[2]; [5]", "result": 55.8, "unit": "ng/mL"}, {"measurement": "concentration at 0.75 h", "setting": "[2]; [6]", "result": 82.9, "unit": "ng/mL"}, {"measurement": "concentration at 1 h", "setting": "[2]; [7]", "result": 82.8, "unit": "ng/mL"}, {"measurement": "concentration at 1.5 h", "setting": "[2]; [8]", "result": 64.7, "unit": "ng/mL"}, {"measurement": "concentration at 2 h", "setting": "[2]; [9]", "result": 58.3, "unit": "ng/mL"}, {"measurement": "concentration at 3 h", "setting": "[2]; [10]", "result": 29.4, "unit": "ng/mL"}, {"measurement": "concentration at 4 h", "setting": "[2]; [11]", "result": 16.3, "unit": "ng/mL"}, {"measurement": "concentration at 5 h", "setting": "[2]; [12]", "result": 9, "unit": "ng/mL"}, {"measurement": "concentration at 6 h", "setting": "[2]; [13]", "result": 4.2, "unit": "ng/mL"}, {"measurement": "concentration at 8 h", "setting": "[2]; human, plasma, po, 2 mg, 2 mg capsule, 8.00 h", "result": 1.2, "unit": "ng/mL"}, {"measurement": "Cmax", "setting": "[2]; human, plasma, po, 2 mg capsule p.o., read-out: Maximum concentration", "result": "83 ± 18", "unit": "ng/mL"}, {"measurement": "Glucose (mean)", "setting": "[3]; 2 mg capsule, 0 h", "result": 5.0, "unit": "mmol/L"}, {"measurement": "Glucose (mean)", "setting": "[3]; 2 mg capsule, 0.20 h", "result": 5.0, "unit": "mmol/L"}, {"measurement": "Glucose (mean)", "setting": "[3]; 2 mg capsule, 0.33 h", "result": 4.9, "unit": "mmol/L"}, {"measurement": "Glucose (mean)", "setting": "[3]; 2 mg capsule, 0.50 h", "result": 4.8, "unit": "mmol/L"}, {"measurement": "Glucose (mean)", "setting": "[3]; 2 mg capsule, 0.75 h", "result": 4.6, "unit": "mmol/L"}, {"measurement": "Glucose (mean)", "setting": "[3]; 2 mg capsule, 1.00 h", "result": 4.4, "unit": "mmol/L"}, {"measurement": "Glucose (mean)", "setting": "[3]; 2 mg capsule, 1.50 h", "result": 3.9, "unit": "mmol/L"}, {"measurement": "Glucose (mean)", "setting": "[3]; 2 mg capsule, 2.00 h (breakfast)", "result": 3.7, "unit": "mmol/L"}, {"measurement": "Glucose (mean)", "setting": "[3]; 2 mg capsule, 3.00 h", "result": 4.4, "unit": "mmol/L"}, {"measurement": "Glucose (mean)", "setting": "[3]; 2 mg capsule, 4.00 h", "result": 4.0, "unit": "mmol/L"}, {"measurement": "Glucose (mean)", "setting": "[3]; 2 mg capsule, 5.00 h (lunch)", "result": 4.2, "unit": "mmol/L"}, {"measurement": "Glucose (mean)", "setting": "[3]; 2 mg capsule, 6.00 h", "result": 4.8, "unit": "mmol/L"}, {"measurement": "Glucose (mean)", "setting": "[3]; 2 mg capsule, 9.00 h", "result": 5.0, "unit": "mmol/L"}, {"measurement": "Glucose (mean)", "setting": "[3]; 2 mg capsule, 24.00 h", "result": 4.9, "unit": "mmol/L"}, {"measurement": "Time at which glucose levels return to original level", "setting": "[3]; 2 mg p.o.", "result": 6, "unit": "h"}, {"measurement": "Glucose (mean)", "setting": "[3]; 2 mg tablet, 0 h", "result": 4.9, "unit": "mmol/L"}, {"measurement": "Glucose (mean)", "setting": "[3]; 2 mg tablet, 0.20 h", "result": 5.0, "unit": "mmol/L"}, {"measurement": "Glucose (mean)", "setting": "[3]; 2 mg tablet, 0.33 h", "result": 4.9, "unit": "mmol/L"}, {"measurement": "Glucose (mean)", "setting": "[3]; 2 mg tablet, 0.50 h", "result": 4.6, "unit": "mmol/L"}, {"measurement": "Glucose (mean)", "setting": "[3]; 2 mg tablet, 0.75 h", "result": 4.4, "unit": "mmol/L"}, {"measurement": "Glucose (mean)", "setting": "[3]; 2 mg tablet, 1.00 h", "result": 4.1, "unit": "mmol/L"}, {"measurement": "Glucose (mean)", "setting": "[3]; 2 mg tablet, 1.50 h", "result": 3.8, "unit": "mmol/L"}, {"measurement": "Glucose (mean)", "setting": "[3]; 2 mg tablet, 2.00 h (breakfast)", "result": 3.8, "unit": "mmol/L"}, {"measurement": "Glucose (mean)", "setting": "[3]; 2 mg tablet, 3.00 h", "result": 4.7, "unit": "mmol/L"}, {"measurement": "Glucose (mean)", "setting": "[3]; 2 mg tablet, 4.00 h", "result": 4.2, "unit": "mmol/L"}, {"measurement": "Glucose (mean)", "setting": "[3]; 2 mg tablet, 5.00 h (lunch)", "result": 4.2, "unit": "mmol/L"}, {"measurement": "Glucose (mean)", "setting": "[3]; 2 mg tablet, 6.00 h", "result": 5.2, "unit": "mmol/L"}, {"measurement": "Glucose (mean)", "setting": "[3]; 2 mg tablet, 9.00 h", "result": 5.0, "unit": "mmol/L"}, {"measurement": "Glucose (mean)", "setting": "[3]; 2 mg tablet, 24.00 h", "result": 4.8, "unit": "mmol/L"}, {"measurement": "Concentration (mean)", "setting": "[4]; 2 mg capsule, 0 h", "result": 0.0, "unit": "ng/mL"}, {"measurement": "Concentration (mean)", "setting": "[4]; 2 mg capsule, 4.00 h, listed as 388, 240 min", "result": "17 ± 5", "unit": "ng/mL"}, {"measurement": "Concentration (mean)", "setting": "[4]; 2 mg capsule, 5.00 h, listed as 388, 300 min", "result": "12 ± 3", "unit": "ng/mL"}, {"measurement": "Concentration (mean)", "setting": "[4]; 2 mg capsule, 6.00 h, listed as 388, 360 min", "result": "8 ± 4", "unit": "ng/mL"}, {"measurement": "Concentration (mean)", "setting": "[4]; 2 mg capsule, 24.00 h", "result": 0.0, "unit": "ng/mL"}, {"measurement": "Rise and peak of plasma level, tablet versus capsule", "setting": "[4]; 2 mg p.o.", "result": "rises rather more rapidly after administration of the tablet and reaches its peak somewhat earlier"}, {"measurement": "Time at which level reaches / falls below the detection limit", "setting": "[4]; 2 mg p.o.", "result": "≥ 6", "unit": "h"}, {"measurement": "Time at which level reaches / falls below the detection limit", "setting": "[4]; 2 mg p.o., listed as AG-EE 398 ZW", "result": "about 6 hours"}, {"measurement": "Maximum concentration", "setting": "[4]; 2 mg tablet p.o.", "result": "83.5 ± 25.5", "unit": "ng/mL"}, {"measurement": "Concentration (mean)", "setting": "[4]; 2 mg tablet, 0 h", "result": 0.0, "unit": "ng/mL"}, {"measurement": "Concentration (mean)", "setting": "[4]; 2 mg tablet, 4.00 h, 240 min", "result": 19.1, "unit": "ng/mL"}, {"measurement": "Concentration (mean)", "setting": "[4]; 2 mg tablet, 24.00 h", "result": 0.0, "unit": "ng/mL"}, {"measurement": "concentration at 0.2 h", "setting": "[4]; [14]", "result": 0.9, "unit": "ng/mL"}, {"measurement": "concentration at 0.33 h", "setting": "[4]; [14]", "result": 17.5, "unit": "ng/mL"}, {"measurement": "concentration at 0.5 h", "setting": "[4]; [5]", "result": 44.9, "unit": "ng/mL"}, {"measurement": "concentration at 0.75 h", "setting": "[4]; [6]", "result": 66.4, "unit": "ng/mL"}, {"measurement": "concentration at 1 h", "setting": "[4]; [7]", "result": 73.7, "unit": "ng/mL"}, {"measurement": "concentration at 1.5 h", "setting": "[4]; [8]", "result": 65.1, "unit": "ng/mL"}, {"measurement": "concentration at 2 h", "setting": "[4]; [9]", "result": 50.8, "unit": "ng/mL"}, {"measurement": "concentration at 3 h", "setting": "[4]; [10]", "result": 27.9, "unit": "ng/mL"}, {"measurement": "concentration at 4 h", "setting": "[4]; [11]", "result": 16.8, "unit": "ng/mL"}, {"measurement": "concentration at 5 h", "setting": "[4]; [12]", "result": 12.2, "unit": "ng/mL"}, {"measurement": "concentration at 6 h", "setting": "[4]; [13]", "result": 7.8, "unit": "ng/mL"}, {"measurement": "concentration at 9 h", "setting": "[4]; human, plasma, po, 2 mg, 2 mg capsule, 9.00 h", "result": 3.3, "unit": "ng/mL"}, {"measurement": "concentration at 0.2 h", "setting": "[4]; [15]", "result": 15, "unit": "ng/mL"}, {"measurement": "concentration at 0.33 h", "setting": "[4]; [15]", "result": 55.6, "unit": "ng/mL"}]}
